Read-outs that look alike come from different tables or passages of the source.
What was measured:
[1] = molecular target: T1, PRMT5-MEP50 enzyme complex (Homo sapiens, UniProt O14744); test: PRMT5-MEP50 Enzyme Methylation Assay; assay type: biochemical
T1 construct: Full-length (FL)-PRMT5-MEP50 enzyme complex (recombinant proteins from baculovirus-transfected Sf21 cells); made in house; host or cells: baculovirus-transfected Sf21 insect cells
Protocol: PRMT5-MEP50 biochemical assay is a direct measurement of the methylation activity of the enzyme complex on a short peptide substrate derived from the N-terminus of H4 histone. Methylation experiment is performed with recombinant PRMT5-MEP50 protein complex. The assessment of inhibitory effect of small molecules is measured by the effectiveness of the compounds to inhibit this reaction (EC50).
In this assay, the potency (EC50) of each compound was determined from a twenty-point (1:2 serial dilution; top compound concentration of 100000 nM) titration curve using the following outlined procedure. To each well of a white ProxiPlus 384 well-plate, 100 nL of compound (1% DMSO in final assay volume of 10 μL) was dispensed, followed by the addition of 8 μL of 1× assay buffer (50 mM Bicine pH 8.0, 1 mM DTT, 0.004% Tween20, 0.01% BSA) containing 1.25 nM of Full-length (FL)-PRMT5-MEP50 enzyme complex (recombinant proteins from baculovirus-transfected Sf21 cells: FL-PRMT5; MW=[…] and FL-MEP50; MW=38614) and 1 μL of 150 μM S-(5′-Adenosyl)-L-Methionine Chloride (SAM). Plates were sealed and placed in a 37° C. humidified chamber for a 60 minutes pre-incubation with compound. Subsequently, each reaction was initiated by the addition of 1 μL 1× assay buffer containing 750 nM biotinylated H4R3 (Me1) peptide. The final reaction in each well of 10 μL consists of 1.0 nM PRMT5-MEP50, 75 nM biotinylated-peptide, and 15 μM SAM. Methylation reactions were allowed to proceed for 150 minutes in a sealed plate at 37° C. Reactions were immediately quenched by the addition of 1 μL of 5% formic acid. Plates were then frozen and shipped to SAMDITM Tech Inc. to determine the percent conversion from H4R^3 (Me1) to H4R^3 (Me2). Dose-response curves were generated by plotting percent effect (% product conversion; Y-axis) vs. Log10 compound concentrations (X-axis). EC50 values were determined by non-linear regression according to models for either sigmoidal (4 parameters) or biphasic (7 parameters) dose-response curves.

PRMT5 = molecular target: T2, PRMT5 (Homo sapiens, UniProt O14744); test: PRMT5 Cell Target Engagement (TE) Assay; assay type: cell-based; conditions: MCF-7 cells, 3 days treatment, nuclear SDMA by high content imaging
T2 construct: endogenous in cells; host or cells: MCF-7
T2 sequence (O14744 whole entry): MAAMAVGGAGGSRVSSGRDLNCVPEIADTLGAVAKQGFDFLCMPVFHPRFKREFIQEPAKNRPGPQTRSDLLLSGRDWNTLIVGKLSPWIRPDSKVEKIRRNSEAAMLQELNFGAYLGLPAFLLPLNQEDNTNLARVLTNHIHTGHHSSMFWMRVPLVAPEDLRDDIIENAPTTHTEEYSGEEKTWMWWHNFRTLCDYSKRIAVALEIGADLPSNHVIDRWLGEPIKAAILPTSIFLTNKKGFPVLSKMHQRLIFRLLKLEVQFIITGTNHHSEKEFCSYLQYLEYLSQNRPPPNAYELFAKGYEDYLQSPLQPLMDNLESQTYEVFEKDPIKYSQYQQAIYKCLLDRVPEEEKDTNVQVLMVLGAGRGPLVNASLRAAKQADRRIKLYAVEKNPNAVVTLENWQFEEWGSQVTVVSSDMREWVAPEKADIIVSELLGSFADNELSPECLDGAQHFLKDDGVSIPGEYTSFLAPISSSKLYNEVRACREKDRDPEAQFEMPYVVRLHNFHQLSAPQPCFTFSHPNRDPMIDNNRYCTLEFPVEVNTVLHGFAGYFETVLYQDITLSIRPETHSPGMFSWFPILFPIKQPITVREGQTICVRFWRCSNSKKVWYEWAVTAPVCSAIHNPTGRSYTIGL
T2 sequence (Q9BQA1 whole entry partner): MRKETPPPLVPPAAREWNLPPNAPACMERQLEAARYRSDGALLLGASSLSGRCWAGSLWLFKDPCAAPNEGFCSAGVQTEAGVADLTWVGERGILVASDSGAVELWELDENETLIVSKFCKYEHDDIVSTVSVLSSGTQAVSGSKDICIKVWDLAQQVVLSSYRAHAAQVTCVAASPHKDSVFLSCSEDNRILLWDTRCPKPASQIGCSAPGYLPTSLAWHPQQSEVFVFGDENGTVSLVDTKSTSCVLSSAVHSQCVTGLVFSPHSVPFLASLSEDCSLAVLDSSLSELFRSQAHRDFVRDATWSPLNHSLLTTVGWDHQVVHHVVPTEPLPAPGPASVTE
In short: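 MCF-7 cells seeded 5 h, then treated 3 days at 37 °C with 10-point 1:3 dilutions from 10000 nM. Fixed cells immunostained for SDMA with AF488 secondary; nuclear intensity imaged per cell and expressed as % inhibition vs DMSO. EC50 from 4-parameter robust fit.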

[2] = recombinant FL-PRMT5-MEP50, biotinylated H4R3(Me1) peptide, 15 μM SAM, single EC50 (4 parameter sigmoidal fit) or first EC50 of 7 parameter biphasic fit, read-out: Enzyme Methylation Assay (EC50 or EC50_1)
[3] = second EC50 of 7 parameter biphasic fit, read-out: Enzyme Methylation Assay (EC50_2)

T1 sequence (O14744 whole entry): as the sequence (O14744 whole entry) above
T1 sequence (Q9BQA1 whole entry partner): as the sequence (Q9BQA1 whole entry partner) above

SMILES | EC50 [1, 2] | EC50 [1, 3] | EC50 (PRMT5)
C[C@@]1(O)[C@@H]([C@H](O)c2ccc(Cl)c(Cl)c2)O[C@@H](n2ccc3c(N)ncnc32)[C@@H]1O [Example 13, 7-[(5R)-5-C-(3,4-dichlorophenyl)-3-C-methyl-beta-D-ribofuranosyl]-7H-pyrrolo[2,3-d]pyrimidin-4-amine] | 1.47 nM | 40 nM | 39 nM
C[C@@]1(O)[C@@H]([C@H](O)c2ccc(F)c(C(F)F)c2F)O[C@@H](n2ccc3c(N)ncnc32)[C@@H]1O [Example 67, 7-{(5R)-5-C-[3-(difluoromethyl)-2,4-difluorophenyl]-3-C-methyl-beta-D-ribofuranosyl}-7H-pyrrolo[2,3-d]pyrimidin-4-amine] |  |  | 435 nM
C[C@@]1(O)[C@@H]([C@@H](O)c2ccc(F)c(C(F)F)c2F)O[C@@H](n2ccc3c(N)ncnc32)[C@@H]1O [Example 68, 7-{(5S)-5-C-[3-(difluoromethyl)-2,4-difluorophenyl]-3-C-methyl-beta-D-ribofuranosyl}-7H-pyrrolo[2,3-d]pyrimidin-4-amine] |  |  | > 10000 nM
C[C@@]1(O)[C@@H]([C@H](O)c2cc(C(F)F)ccn2)O[C@@H](n2ccc3c(N)ncnc32)[C@@H]1O [Example 72, 7-{(5R)-5-C-[4-(difluoromethyl)pyridin-2-yl]-3-C-methyl-beta-D-ribofuranosyl}-7H-pyrrolo[2,3-d]pyrimidin-4-amine] |  |  | 2060 nM
C[C@@]1(O)[C@@H]([C@@H](O)c2cc(C(F)F)ccn2)O[C@@H](n2ccc3c(N)ncnc32)[C@@H]1O [Example 73, 7-{(5S)-5-C-[4-(difluoromethyl)pyridin-2-yl]-3-C-methyl-beta-D-ribofuranosyl}-7H-pyrrolo[2,3-d]pyrimidin-4-amine] |  |  | > 10000 nM
C[C@@]1(O)[C@@H]([C@H](O)c2cncc(C(F)F)c2)O[C@@H](n2ccc3c(N)ncnc32)[C@@H]1O [Example 74, 7-{(5R)-5-C-[5-(difluoromethyl)pyridin-3-yl]-3-C-methyl-beta-D-ribofuranosyl}-7H-pyrrolo[2,3-d]pyrimidin-4-amine] |  |  | 2710 nM
C[C@@]1(O)[C@@H]([C@@H](O)c2cncc(C(F)F)c2)O[C@@H](n2ccc3c(N)ncnc32)[C@@H]1O [Example 75, 7-{(5S)-5-C-[5-(difluoromethyl)pyridin-3-yl]-3-C-methyl-beta-D-ribofuranosyl}-7H-pyrrolo[2,3-d]pyrimidin-4-amine] |  |  | > 10000 nM
C[C@]1(O)[C@@H](O)[C@H](n2ccc3c(N)ncnc32)O[C@@H]1[C@](C)(O)c1cc(C(F)F)ccn1 [Example 76, 7-{6-deoxy-5-C-[4-(difluoromethyl)pyridin-2-yl]-3-C-methyl-alpha-L-talofuranosyl}-7H-pyrrolo[2,3-d]pyrimidin-4-amine] |  |  | 1200 nM
C[C@]1(O)[C@@H](O)[C@H](n2ccc3c(N)ncnc32)O[C@@H]1[C@](C)(O)c1cncc(C(F)F)c1 [Example 77, 7-{6-deoxy-5-C-[5-(difluoromethyl)pyridin-3-yl]-3-C-methyl-alpha-L-talofuranosyl}-7H-pyrrolo[2,3-d]pyrimidin-4-amine] |  |  | 1330 nM
C[C@@]1(O)[C@@H]([C@H](O)c2ccnc(C(F)F)c2)O[C@@H](n2ccc3c(N)ncnc32)[C@@H]1O [Example 78, 7-{(5R)-5-C-[2-(difluoromethyl)pyridin-4-yl]-3-C-methyl-beta-D-ribofuranosyl}-7H-pyrrolo[2,3-d]pyrimidin-4-amine] |  |  | 1420 nM
C[C@@]1(O)[C@@H]([C@@H](O)c2ccnc(C(F)F)c2)O[C@@H](n2ccc3c(N)ncnc32)[C@@H]1O [Example 79, 7-{(5S)-5-C-[2-(difluoromethyl)pyridin-4-yl]-3-C-methyl-beta-D-ribofuranosyl}-7H-pyrrolo[2,3-d]pyrimidin-4-amine] |  |  | > 10000 nM
C[C@]1(O)[C@@H](O)[C@H](n2ccc3c(N)ncnc32)O[C@@H]1[C@](C)(O)c1ccnc(C(F)F)c1 [Example 80, 7-{6-deoxy-5-C-[2-(difluoromethyl)pyridin-4-yl]-3-C-methyl-alpha-L-talofuranosyl}-7H-pyrrolo[2,3-d]pyrimidin-4-amine] |  |  | 360 nM
C[C@]1(O)[C@@H](O)[C@H](n2ccc3c(N)ncnc32)O[C@@H]1[C@@](C)(O)c1ccnc(C(F)F)c1 [Example 81, 7-{6-deoxy-5-C-[2-(difluoromethyl)pyridin-4-yl]-3-C-methyl-beta-D-allofuranosyl}-7H-pyrrolo[2,3-d]pyrimidin-4-amine] |  |  | > 10000 nM
C=C(c1cc(F)cc(C(F)F)c1)[C@H]1O[C@@H](n2ccc3c(N)ncnc32)[C@H](O)[C@]1(C)O [Example 82, (2R,3S,4R,5R)-5-(4-amino-7H-pyrrolo[2,3-d]pyrimidin-7-yl)-2-(1-(3-(difluoromethyl)-5-fluorophenyl)vinyl)-3-methyltetrahydrofuran-3,4-diol] |  |  | 280 nM

More lines, now with the values ahead:

EC50 [1, 2] | EC50 [1, 3] | EC50 (PRMT5) | SMILES
0.51 nM | 75 nM | 65 nM | C[C@@]1(O)[C@@H]([C@H](O)c2ccc(F)c(Cl)c2)O[C@@H](n2ccc3c(N)ncnc32)[C@@H]1O [Example 15, 7-[(5R)-5-C-(3-chloro-4-fluorophenyl)-3-C-methyl-beta-D-ribofuranosyl]-7H-pyrrolo[2,3-d]pyrimidin-4-amine]
 |  | 507 nM | C[C@]1(O)[C@@H](O)[C@H](n2ccc3c(N)ncnc32)O[C@@H]1[C@@](C)(O)c1cccc2c1CNCC2 [Example 69, 7-[6-deoxy-3-C-methyl-5-C-(1,2,3,4-tetrahydroisoquinolin-8-yl)-beta-D-allofuranosyl]-7H-pyrrolo[2,3-d]pyrimidin-4-amine]
1.79 nM | 42 nM | 1190 nM | C[C@@]1(O)[C@@H]([C@H](O)c2cccc3c2CNCC3)O[C@@H](n2ccc3c(N)ncnc32)[C@@H]1O [Example 70, 7-[(5R)-3-C-methyl-5-C-(1,2,3,4-tetrahydroisoquinolin-8-yl)-beta-D-ribofuranosyl]-7H-pyrrolo[2,3-d]pyrimidin-4-amine]
15.5 nM | 1700 nM | > 10000 nM | C[C@@]1(O)[C@@H]([C@@H](O)c2cccc3c2CNCC3)O[C@@H](n2ccc3c(N)ncnc32)[C@@H]1O [Example 71, 7-[(5S)-3-C-methyl-5-C-(1,2,3,4-tetrahydroisoquinolin-8-yl)-beta-D-ribofuranosyl]-7H-pyrrolo[2,3-d]pyrimidin-4-amine]
34 nM | 2660 nM | 9380 nM | C=C(c1cccc2c1CNCC2)[C@H]1O[C@@H](n2ccc3c(C)ncnc32)[C@H](O)[C@]1(C)O [Example 85, (2R,3S,4R,5R)-3-methyl-5-(4-methyl-7H-pyrrolo[2,3-d]pyrimidin-7-yl)-2-(1-(1,2,3,4-tetrahydroisoquinolin-8-yl)vinyl)tetrahydrofuran-3,4-diol]
 |  | 65 nM | Cc1ncnc2c1ccn2[C@@H]1O[C@H]([C@@H](C)c2cccc3c2CNCC3)[C@@](C)(O)[C@H]1O [Example 87, (2R,3S,4R,5R)-3-methyl-5-(4-methyl-7H-pyrrolo[2,3-d]pyrimidin-7-yl)-2-((S)-1-(1,2,3,4-tetrahydroisoquinolin-8-yl)ethyl)tetrahydrofuran-3,4-diol]
 |  | 47 nM | Cc1ncnc2c1ccn2[C@@H]1O[C@H]([C@](C)(O)c2cccc3c2CNCC3)[C@@](C)(O)[C@H]1O [Example 88, (2R,3S,4R,5R)-2-((R)-1-hydroxy-1-(1,2,3,4-tetrahydroisoquinolin-8-yl)ethyl)-3-methyl-5-(4-methyl-7H-pyrrolo[2,3-d]pyrimidin-7-yl)tetrahydrofuran-3,4-diol]
 |  | 0.54 nM | Cc1ncnc2c1ccn2[C@@H]1O[C@H]([C@](C)(O)c2cc(C(F)F)c(F)c3c2CNCC3)[C@@](C)(O)[C@H]1O [Example 91, (2R,3S,4R,5R)-2-((R)-1-(6-(difluoromethyl)-5-fluoro-1,2,3,4-tetrahydroisoquinolin-8-yl)-1-hydroxyethyl)-3-methyl-5-(4-methyl-7H-pyrrolo[2,3-d]pyrimidin-7-yl)tetrahydrofuran-3,4-diol]

Reference: US12552826B2, “PRMT5 inhibitors” (Merck Sharp & Dohme LLC, priority 2018, dated 2026)
